Source: patent US9434719B2, “3-pyrimidin-4-yl-oxazolidin-2-ones as inhibitors of mutant IDH” (NOVARTIS AG, priority 2013, dated 2016)
Structures can show the parent of a compound that is named as a salt.

What was measured:
Assay type in all cases: in vitro ADME
[1] = Metabolic stability in liver microsomes, Method II, rat; settings: 1 μM test compound, NADPH + UDPGA
Description: The in vitro metabolic stability assay was performed in a 96-deep-well plate with incubation at 37° C. 10 mM DMSO stock solution of the test compound was diluted 1:20 in acetonitrile, followed by an additional 1:10 dilution in 100 mM potassium phosphate buffer (KPi) to yield a final reaction concentration of 1 μM. […] 290 μL of cofactor solution (1.7 mM NADPH, 1.7 mM UDPGA, 3.4 mM MgCl in 100 mM KPi) was added to 200 μL of microsomal protein for a final volume of 490 μL. The reaction was initiated by adding 10 μL of the 50 μM test solution to 490 μL of microsomal protein for a final volume 500 μL enzyme-compound mixture.
UPLC mobile phase A: 0.25% formic acid in 5% methanol; mobile phase B: 0.25% formic acid in 95% water.

[2] = Metabolic stability in liver microsomes, Method II, mouse; settings: NADPH + UDPGA; for microsomal CLint: 1 μM test compound
Description: (§1) Determination of Metabolic Stability in Liver Microsomes—Method II
(§2) The in vitro metabolic stability assay was performed in a 96-deep-well plate with incubation at 37° C. 10 mM DMSO stock solution of the test compound was diluted 1:20 in acetonitrile, followed by an additional 1:10 dilution in 100 mM potassium phosphate buffer (KPi) to yield a final reaction concentration of 1 μM. Immediately prior to the start of the experiment, respective animal or human liver microsomes (male Sprague-dawley rat, male CD-1 mouse, or pooled human liver microsomes) were diluted in 100 mM KPi to 1.25 mg/mL liver microsomal protein. 290 μL of cofactor solution (1.7 mM NADPH, 1.7 mM UDPGA, 3.4 mM MgCl in 100 mM KPi) was added to 200 μL of microsomal protein for a final volume of 490 μL. The reaction was initiated by adding 10 μL of the 50 μM test solution to 490 μL of microsomal protein for a final volume 500 μL enzyme-compound mixture.
(§3) At 0, 5, 15 and 30 minute time points in the reaction, reaction aliquots (75 μL) were removed and the reactions were terminated by the addition of 50:50 acetonitrile/methanol solution (75 μL) containing a mass spectrometry internal standard (0.5 μM glyburide). The samples were centrifuged at 4000 RPM for 10 minutes. Supernatants (15 μL aliquots) were transferred to a new plate where each well contains 90 μL of deionized water. The supernatants solution were analyzed by UPLC/MS/MS for quantitation of parent remaining compound under multiple reactions monitoring mode (MRM) in positive mode. The percentage of compound remaining, relative to 0 minutes, was used to estimate in vitro elimination-rate constant (k) which was used to calculate in vitro metabolic clearance rates.
(§4) Analysis of the samples was performed on an ultra-performance liquid chromatography-tandem mass spectrometry (UPLC/MS/MS) system consisting of an AB Sciex Qtrap 5500 mass spectrometer, AB Sciex Turbo V ion source, Waters Acquity Sample Organizer, Waters Acquity Column manager, Waters Acquity Sample manager, and a Waters Acquity Binary Solvent Manager. Chromatographic separation of analyte and internal standard was achieved using a reverse phase C-18 column (50×2.1 mm, 1.7 μm, Acquity UPLC BEH C-18) with the following UPLC mobile phases and elution gradient: […]
(§5) UPLC mobile phase A: 0.25% formic acid in 5% methanol; mobile phase B: 0.25% formic acid in […].
(§6) The injection volume was 5 μL. Compounds were detected using Analyst 1.5.1 software which collects intensity data for all fragments related to the molecular weight of the test compound. After collection of the raw data, the software identifies and integrates the peak of the strongest intensity.
(§7) Each microsomal elimination rate, k, was based on a 4-point elimination curve tested in duplicates. LC-MS/MS raw data for a reaction plate was returned as integrated analyte peak areas for the test compound and internal standard used in the quench solution for the reaction to enable use of analyte:internal standard peak area ratios (PARs) for all data comparisons. The reaction time point (e.g. 0, 5, 15 and 30 minutes) was plotted versus the natural logarithm of percent test compound remaining relative to 0 minutes (based on relative PAR). The slope of this clearance plot, k, was used to calculate the in vitro half-life.
(§8) [formula] The intrinsic clearance value, CLint (expressed as μL/min/mg microsomal protein) calculation is shown below:
(§9) [formula] Where V=the incubation volume (mL) and M=the microsomal protein content in the incubation (mg)

[3] = Metabolic stability in liver microsomes, Method II, human; settings: 1 μM test compound, NADPH + UDPGA
Description: as §1, §2, §3, §4, §5, §6, §7, §8, §9

| SMILES | microsomal CLint [1] | microsomal CLint [2] | microsomal CLint [3] | microsomal CLint at 1 μM ([1]; male, Sprague-Dawley) | microsomal CLint at 1 μM ([2]; male, CD-1, 1 μM test compound) | microsomal CLint at 1 μM ([3]; pooled liver microsomes) |
| --- | --- | --- | --- | --- | --- | --- |
| C[C@H](Nc1nccc(N2C(=O)OC[C@@H]2CF)n1)c1cn(-c2ccc(F)c(F)c2)cn1 [474 as TFA salt] | 24.8 µL/min/mg | < 7.7 µL/min/mg | < 7.7 µL/min/mg | – | – | – |
| C[C@H](Nc1nccc(N2C(=O)OC[C@@H]2[C@H](C)F)n1)c1cn(-c2ccc(Cl)cc2F)cn1 [476 as TFA salt] | 344 µL/min/mg | 111 µL/min/mg | 41.4 µL/min/mg | – | – | – |
| C[C@H](Nc1nccc(N2C(=O)OC[C@@H]2[C@H](C)F)n1)c1cn(-c2ccc(F)cc2F)cn1 [478 as TFA salt] | 219 µL/min/mg | 55.3 µL/min/mg | 10.9 µL/min/mg | – | – | – |
| C[C@H](Nc1ncc(F)c(N2C(=O)OC[C@@H]2[C@H](C)F)n1)c1cn(-c2ccc(F)cc2F)cn1 [479 as TFA salt] | 173 µL/min/mg | 116 µL/min/mg | 11.9 µL/min/mg | – | – | – |
| C[C@H](Nc1ncc(F)c(N2C(=O)OC[C@@H]2[C@H](C)F)n1)c1cn(-c2ccc(Cl)cc2F)cn1 [Example 477, (R)-3-(2-(((S)-1-(1-(4-chloro-2-fluorophenyl)-1H-imidazol-4-yl)ethyl)amino)-5-fluoropyrimidin-4-yl)-4-((S)-1-fluoroethyl)oxazolidin-2-one] | – | – | – | 438 µL/min/mg | 167 µL/min/mg | 30.4 µL/min/mg |
